Activity calls are given as the source filed them.
Assays:
[1] = ADAM10 protease inhibitors, dose response, selectivity assay for ADAM17 exosite inhibitor project, biochemical, FRET peptide substrate, recombinant human ADAM10 (AID 743259);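 also: ADAM10 enzyme cleaving a FRET peptide substrate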
[2] = target: Disintegrin and metalloproteinase domain-containing protein 17 (Homo sapiens, UniProt P78536); assay: exosite inhibitors of ADAM17, dose response, biochemical (AID 743260)
[3] = target: Scavenger receptor class B member 1 (Mus musculus, UniProt Q61009); assay: inhibitors of SR-BI mediated HDL lipid uptake, dose response, ldlA[mSR-BI] cells, fluorescence, cherry pick (AID 493194); format: functional, cell-based;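 also: cellular uptake of fluorescent DiI-labeled HDL measured as cell fluorescence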
[4] = target: T1, E3 ubiquitin-protein ligase XIAP (Homo sapiens, UniProt P98170); assay: Counter Screen using XIAP-Bir3 for Chemical Antagonists of Bir1/2 domains of IAP-family anti-apoptotic proteins. [Related pubchem assays (depositor defined):AID1018, AID1449, AID1514, AID1638, AID1749, AID1750, AID488957, AID488963]
[5] = inhibition of K1F phage lysis, E. coli UTI89, bacterial capsule biogenesis inhibitors, alamar blue (AID 488966); format: functional
[6] = target: T1, E3 ubiquitin-protein ligase XIAP; assay: XIAP antagonists, biochemical, IAP family, fluorescence polarization (AID 1018); format: functional
[7] = target: Aspartyl aminopeptidase (Plasmodium falciparum 3D7, UniProt Q8I2J3)
[8] = target: Procathepsin L (Homo sapiens, UniProt P07711)
[9] = target: Polyadenylate-binding protein 1 (Homo sapiens, UniProt P11940); assay: PABP inhibition in translation initiation, SAR follow-up (AID 435018); format: functional
[10] = target: Eukaryotic translation initiation factor 4H (Homo sapiens, UniProt Q15056); assay: eIF4H inhibition in translation initiation, SAR follow-up (AID 435011); format: functional
[11] = control 3'UTR Renilla luciferase suppression, dose response, counter-screen for Shn3 inhibitor project, cell-based, Clone20-Shn3RL, cherry-picked (AID 624133); format: functional
[12] = target: Luciferin 4-monooxygenase (Photinus pyralis, UniProt P08659); assay: firefly luciferase enzyme inhibitors, dose response, biochemical, luminescence (AID 1891)
[13] = HepG2 cell cytotoxicity, dose response, cytotoxicity control for Shn3 inhibitor project, CellTiter-Glo, cherry-picked (AID 624134); format: functional, cell-based
[14] = Shn3 3'UTR reporter inhibitors, dose response, cell-based, Clone20 osteoblasts, firefly luciferase, cherry-picked (AID 624132); format: functional;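 also: firefly luciferase luminescence from reporter carrying the Shn3 3'UTR in osteoblasts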
[15] = Fluorescence-based cell-based high throughput dose response assay for inhibitors of the interaction of nucleotide-binding oligomerization domain containing 2 (NOD2) and the receptor-interacting serine-threonine kinase 2 (RIPK2).; format: functional; conditions: Homo sapiens
[16] = Luminescence Cell-Based Dose Confirmation HTS to Identify Inhibitors of Platelet Dense Granule Release. [Related pubchem assays: 1663 (Primary HTS), 1678 (Summary of Project)]; format: functional
[17] = target: Beta-galactosidase (Escherichia coli, UniProt Q8VNN2); assay: beta-galactosidase enzyme inhibitors and activators, dose response, artefact control for CCR6 antagonist project, biochemical, E. coli enzyme, set 3 (AID 504712); format: functional
[18] = target: NACHT, LRR and PYD domains-containing protein 1 (Homo sapiens, UniProt Q9C000); assay: NALP1 inhibitors in yeast, dose response, luminescent (AID 488860); format: functional
[19] = target: Beta Lactamase (Pseudomonas aeruginosa, UniProt Q932Y6); assay: beta-lactamase reporter inhibitor potency, dose response, artefact control for NOD2-RIPK2 interaction inhibitor project, BLA reporter cells, FRET fluorescence (AID 651552); format: functional, cell-based
[20] = system: Saccharomyces cerevisiae; assay: NALP1 inhibitor project selectivity study, Caspase-1/ASC signal blockade IC50 in S. cerevisiae (AID 488863); format: functional, organism-based
[21] = system: HEK293; assay: cells; conditions: Homo sapiens;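 also: cells exposed to compound for 14 hours overnight before viability readout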
[22] = Luminescence-based counterscreen assay for KLF5 inhibitors: dose response cell-based high throughput screening assay to identify cytotoxic compounds using the IEC-6 intestinal epithelial cell line. [Related pubchem assays: 1700 (Primary screen.), 1834 (Confirmation screen.), 1858 (Summary AID.), 1905 (Counterscreen.)]; format: functional
[23] = inhibition of ADP-Glo detection reagents, dose response, artefact control for CDK5 inhibitor project, biochemical, luminescence, cherry-picked samples, set 2 (AID 504546); format: functional
[24] = system: Vero; assay: cells; format: functional; conditions: Chlorocebus sabaeus
[25] = cytotoxicity in HEK-293T cells, dose response, cytotoxicity control for TCR NF-kB inhibitor project, luminescence, T-cell screen hits (AID 489026); format: functional, cell-based;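 also: cells exposed to compound about 14 hours before the viability readout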

T1 sequence (P98170 whole entry): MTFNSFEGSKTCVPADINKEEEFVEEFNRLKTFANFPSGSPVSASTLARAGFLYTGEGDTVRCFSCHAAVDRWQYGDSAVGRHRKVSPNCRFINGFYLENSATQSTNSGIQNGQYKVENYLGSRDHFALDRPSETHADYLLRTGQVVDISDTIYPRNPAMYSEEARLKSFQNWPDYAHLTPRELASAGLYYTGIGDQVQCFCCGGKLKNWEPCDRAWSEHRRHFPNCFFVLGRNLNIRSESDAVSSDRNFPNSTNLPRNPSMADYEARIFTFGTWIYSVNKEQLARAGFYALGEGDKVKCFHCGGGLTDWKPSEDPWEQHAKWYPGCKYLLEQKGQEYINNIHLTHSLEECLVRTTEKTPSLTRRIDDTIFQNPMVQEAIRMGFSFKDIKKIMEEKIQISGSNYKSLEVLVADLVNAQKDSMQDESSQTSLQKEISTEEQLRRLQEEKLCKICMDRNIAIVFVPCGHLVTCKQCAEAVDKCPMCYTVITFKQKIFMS
Sequence of Luciferin 4-monooxygenase (P08659 whole entry): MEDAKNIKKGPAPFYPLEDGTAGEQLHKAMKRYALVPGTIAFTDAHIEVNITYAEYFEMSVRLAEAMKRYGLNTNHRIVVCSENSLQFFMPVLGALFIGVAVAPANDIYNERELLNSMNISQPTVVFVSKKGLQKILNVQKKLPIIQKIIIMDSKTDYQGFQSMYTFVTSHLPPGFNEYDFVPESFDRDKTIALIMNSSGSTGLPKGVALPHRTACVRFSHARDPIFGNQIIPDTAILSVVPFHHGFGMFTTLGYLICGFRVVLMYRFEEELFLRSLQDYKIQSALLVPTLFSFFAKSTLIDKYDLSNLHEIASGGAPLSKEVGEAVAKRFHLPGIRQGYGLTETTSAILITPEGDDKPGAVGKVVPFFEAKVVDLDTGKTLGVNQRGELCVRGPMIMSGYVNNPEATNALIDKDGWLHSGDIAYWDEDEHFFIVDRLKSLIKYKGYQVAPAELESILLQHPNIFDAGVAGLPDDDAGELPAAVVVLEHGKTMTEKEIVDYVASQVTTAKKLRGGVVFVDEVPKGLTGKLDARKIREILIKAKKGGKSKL
Sequence of Beta Lactamase (Q932Y6 whole entry): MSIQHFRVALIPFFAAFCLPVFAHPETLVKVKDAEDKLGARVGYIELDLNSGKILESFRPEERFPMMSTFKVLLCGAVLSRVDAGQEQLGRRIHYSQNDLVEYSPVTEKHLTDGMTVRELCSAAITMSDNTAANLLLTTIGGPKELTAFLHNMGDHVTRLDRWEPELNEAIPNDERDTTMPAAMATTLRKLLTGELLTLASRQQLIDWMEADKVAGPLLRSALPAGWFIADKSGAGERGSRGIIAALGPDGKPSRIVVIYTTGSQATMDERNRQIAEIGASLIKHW
Sequence of Beta-galactosidase (Q8VNN2 whole entry, the tested form may be a part): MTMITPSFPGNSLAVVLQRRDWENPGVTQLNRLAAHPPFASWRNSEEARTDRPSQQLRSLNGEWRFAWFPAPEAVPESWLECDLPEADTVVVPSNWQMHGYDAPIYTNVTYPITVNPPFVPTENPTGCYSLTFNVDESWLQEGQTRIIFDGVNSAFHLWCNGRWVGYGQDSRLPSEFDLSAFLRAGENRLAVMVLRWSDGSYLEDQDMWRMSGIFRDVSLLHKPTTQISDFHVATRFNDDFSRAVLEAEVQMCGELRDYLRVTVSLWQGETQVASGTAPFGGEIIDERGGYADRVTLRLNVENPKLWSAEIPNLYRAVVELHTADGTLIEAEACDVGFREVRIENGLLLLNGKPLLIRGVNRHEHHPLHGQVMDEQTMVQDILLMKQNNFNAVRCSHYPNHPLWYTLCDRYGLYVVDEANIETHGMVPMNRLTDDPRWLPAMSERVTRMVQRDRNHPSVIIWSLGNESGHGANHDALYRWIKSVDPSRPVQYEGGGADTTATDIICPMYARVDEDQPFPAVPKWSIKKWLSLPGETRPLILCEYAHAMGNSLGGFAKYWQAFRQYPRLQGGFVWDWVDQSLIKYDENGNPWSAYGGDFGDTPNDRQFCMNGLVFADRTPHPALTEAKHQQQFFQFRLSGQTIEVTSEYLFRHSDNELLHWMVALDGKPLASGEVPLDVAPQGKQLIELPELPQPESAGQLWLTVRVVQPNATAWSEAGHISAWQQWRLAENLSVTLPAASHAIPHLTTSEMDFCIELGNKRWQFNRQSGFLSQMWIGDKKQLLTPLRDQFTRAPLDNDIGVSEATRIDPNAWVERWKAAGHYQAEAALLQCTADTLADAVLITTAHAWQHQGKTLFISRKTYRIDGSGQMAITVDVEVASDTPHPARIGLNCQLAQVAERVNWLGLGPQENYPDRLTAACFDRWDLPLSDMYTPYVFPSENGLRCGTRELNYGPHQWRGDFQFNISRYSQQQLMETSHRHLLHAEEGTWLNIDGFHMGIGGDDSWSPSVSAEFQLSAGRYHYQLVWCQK
Sequence of Scavenger receptor class B member 1 (Q61009 whole entry): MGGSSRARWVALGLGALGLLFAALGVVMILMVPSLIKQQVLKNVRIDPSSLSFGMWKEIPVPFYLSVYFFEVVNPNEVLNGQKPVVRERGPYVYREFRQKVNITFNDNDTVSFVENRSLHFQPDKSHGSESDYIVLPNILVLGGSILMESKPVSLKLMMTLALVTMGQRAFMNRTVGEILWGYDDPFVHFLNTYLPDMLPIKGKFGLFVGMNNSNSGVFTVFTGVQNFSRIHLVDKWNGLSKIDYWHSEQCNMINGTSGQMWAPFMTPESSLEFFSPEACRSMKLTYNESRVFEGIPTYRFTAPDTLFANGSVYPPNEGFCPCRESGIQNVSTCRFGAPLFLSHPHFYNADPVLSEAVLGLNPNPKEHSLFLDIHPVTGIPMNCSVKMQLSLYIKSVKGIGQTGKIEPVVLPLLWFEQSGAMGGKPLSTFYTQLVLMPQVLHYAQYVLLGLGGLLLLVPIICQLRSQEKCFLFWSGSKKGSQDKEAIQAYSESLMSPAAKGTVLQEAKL
Sequence of Polyadenylate-binding protein 1 (P11940 whole entry): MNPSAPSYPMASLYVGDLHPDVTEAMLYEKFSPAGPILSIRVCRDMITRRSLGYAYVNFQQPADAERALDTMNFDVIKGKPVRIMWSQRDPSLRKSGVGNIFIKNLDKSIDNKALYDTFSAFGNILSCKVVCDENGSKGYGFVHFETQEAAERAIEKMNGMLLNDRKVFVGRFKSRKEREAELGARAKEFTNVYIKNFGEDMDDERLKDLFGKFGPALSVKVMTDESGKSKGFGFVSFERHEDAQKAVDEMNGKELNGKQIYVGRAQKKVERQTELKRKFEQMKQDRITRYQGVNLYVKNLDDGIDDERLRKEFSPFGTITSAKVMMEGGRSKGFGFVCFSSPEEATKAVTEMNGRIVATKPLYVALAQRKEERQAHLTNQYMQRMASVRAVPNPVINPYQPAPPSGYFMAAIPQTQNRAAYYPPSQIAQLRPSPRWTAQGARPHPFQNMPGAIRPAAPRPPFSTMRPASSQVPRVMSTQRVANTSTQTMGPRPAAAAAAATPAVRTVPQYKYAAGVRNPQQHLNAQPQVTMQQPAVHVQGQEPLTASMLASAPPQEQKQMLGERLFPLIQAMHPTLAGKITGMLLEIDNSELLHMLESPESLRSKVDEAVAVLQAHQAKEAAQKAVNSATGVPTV
Sequence of Procathepsin L (P07711 whole entry): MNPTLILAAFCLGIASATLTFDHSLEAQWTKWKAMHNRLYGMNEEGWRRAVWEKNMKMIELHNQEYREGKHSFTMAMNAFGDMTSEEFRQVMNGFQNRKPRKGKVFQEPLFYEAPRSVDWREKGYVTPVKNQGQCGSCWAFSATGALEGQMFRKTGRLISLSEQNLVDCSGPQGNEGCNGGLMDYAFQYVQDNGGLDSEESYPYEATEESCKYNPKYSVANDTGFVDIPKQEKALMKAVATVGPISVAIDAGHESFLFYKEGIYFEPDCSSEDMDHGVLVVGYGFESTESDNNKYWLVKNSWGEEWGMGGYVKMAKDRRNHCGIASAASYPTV
Sequence of Disintegrin and metalloproteinase domain-containing protein 17 (P78536 whole entry, the tested form may be a part): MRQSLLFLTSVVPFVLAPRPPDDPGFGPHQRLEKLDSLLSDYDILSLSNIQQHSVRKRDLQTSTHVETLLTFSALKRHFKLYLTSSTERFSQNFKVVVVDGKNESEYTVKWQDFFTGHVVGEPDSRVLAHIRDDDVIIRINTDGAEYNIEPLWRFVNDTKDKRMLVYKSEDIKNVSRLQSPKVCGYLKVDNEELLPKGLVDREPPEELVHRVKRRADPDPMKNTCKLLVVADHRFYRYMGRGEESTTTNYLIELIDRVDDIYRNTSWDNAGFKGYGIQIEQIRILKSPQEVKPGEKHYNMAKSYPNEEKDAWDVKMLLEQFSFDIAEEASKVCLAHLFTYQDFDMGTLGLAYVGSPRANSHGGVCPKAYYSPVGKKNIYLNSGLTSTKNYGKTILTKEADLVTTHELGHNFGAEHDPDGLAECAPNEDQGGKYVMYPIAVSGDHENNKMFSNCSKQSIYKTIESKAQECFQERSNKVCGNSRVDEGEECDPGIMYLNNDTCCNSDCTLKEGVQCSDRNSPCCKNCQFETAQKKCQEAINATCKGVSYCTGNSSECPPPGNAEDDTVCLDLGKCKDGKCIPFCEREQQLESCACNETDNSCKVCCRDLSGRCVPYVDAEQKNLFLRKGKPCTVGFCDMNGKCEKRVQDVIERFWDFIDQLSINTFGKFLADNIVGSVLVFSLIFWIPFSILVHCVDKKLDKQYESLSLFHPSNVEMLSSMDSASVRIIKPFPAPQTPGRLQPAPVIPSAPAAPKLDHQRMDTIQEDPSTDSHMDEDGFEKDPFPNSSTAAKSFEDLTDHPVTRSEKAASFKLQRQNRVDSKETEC

## N=C1/C(=C/c2cccn2CCOc2ccccc2)C(=O)N=C2SC=C(c3ccccc3)N12
[1]
  IC50: > 69.5 µM (inactive)
[2]
  IC50: > 69.5 µM (inactive)
[3]
  AC50: 16.9 µM (active)

## COc1ccc(-c2nnc(NC(=O)c3cc(C)on3)s2)cc1
[4]
  IC50: > 100 µM (inactive)
[5]
  IC50: > 75 µM (active)
[6]
  IC50: > 100 µM (not active)

## O=C(Nc1cc(N2CCOCC2)ncn1)NC1(C(F)(F)F)Oc2ccccc2O1
[7]
  IC50: 2.7 µM (active)
[8]
  IC50: > 59.6 µM (not active)

## COc1cc(/C=N\NC(=O)c2ccccc2O)ccc1OCC(=O)Nc1ccc(C)c(C)c1
[9]
  IC50: > 100 µM (inactive)
[10]
  IC50: 34.6 µM (active)

## O=C1CC(Sc2nnnn2-c2ccccc2)C(=O)N1c1cccc(Cl)c1 (stereo not given)
[11]
  AC50: 8.88 µM (active)
[12]
  EC50: > 112 µM (not active)
[13]
  AC50: 24.5 µM (active)
[14]
  AC50: 8.53 µM (active)
[15]
  IC50: 2.81 µM (active)
[16]
  EC50: 19.1 µM (active)
[17]
  IC50: > 66.6 µM (inactive)
[18]
  IC50: 5.83 µM (active)
[19]
  IC50: 12.6 µM (inactive)
[20]
  IC50: 5.13 µM (active)

## Cc1ccc(C(=O)O/N=C(\N)c2ccccn2)c(C)c1
[21]
  IC50: > 20 µM (inactive)
[22]
  IC50: 13.1 µM (not active)
[23]
  AC50: 17.7 µM (active)
[24]
  CC50: 22.5 µM (active)
[25]
  IC50: > 80 µM (inactive)
